The experiment deals with PLpro (Severe acute respiratory syndrome coronavirus 2 (2019-nCoV) (SARS-CoV-2), UniProt P0DTD1). The experiment is described as follows: Assay for PLpro inhibitory activity (Ub-AMC fluorescence; single point inhibition test and IC50 determination). To be noted: for IC50: fluorescence measured after 15 min of reaction; for inhibition at 1 µM: read-out: inhibition of PLpro (1 μM), 1 μM test compound, 100 nM PLpro, 10 μM Ub-AMC, 37° C. 30 min; for inhibition of PLpro (1 μM): 1 μM test compound, 100 nM PLpro, 10 μM Ub-AMC, 37° C. 30 min. Format: biochemical.

On to `Cc1ccc(N2CC3CCC(C2)N3)cc1C(=O)NC1(c2cccc3cc(F)ccc23)CC1` [Example C1], for which the IC50 is 0.083 ± 0.00663 µM and the inhibition at 1 µM is 97.7%. With `Cc1ccc(N2CCNCC2)cc1C(=O)NC1(c2ccc(F)c3ccccc23)CC1` [Example C2], the concentration for half-maximal inhibition (IC50) stood at 0.098 ± 0.0121 µM and the inhibition at 1 µM was determined as 96.4%. For `Cc1ccc(N2CC3CCC(C2)N3)cc1C(=O)NC1(c2ccc(F)c3ccccc23)CC1` [Example C3], half-maximal inhibition (IC50) was put at 0.0401 ± 0.00301 µM and the inhibition at 1 µM came to 96.2%. Take `Cc1ccc(N2CC3CCC(C2)N3)cc1C(=O)NC1(c2cccc(-c3cccs3)c2)CC1` [Example C4]: the inhibition at 1 µM is 73.4%. With `Cc1ccc(N2CC3CCC(C2)N3C)cc1C(=O)NC1(c2cccc(-c3cccs3)c2)CC1` [Example C5], inhibition was half-maximal at 0.104 ± 0.00602 µM (IC50) and the inhibition at 1 µM stood at 79.5%. Consider `Cc1ccc(N2CCNCC2)cc1C(=O)NC1(c2cccc(-c3cccs3)c2)CC1` [Example C6], for which the inhibition at 1 µM was determined as 56.5%. On the same count and under the same terms, the value for `Cc1ccc(N2CC3CCC(C2)N3)cc1C(=O)NC1(c2cccc(C(C)(C)C)c2)CC1` [Example C7] was 15%; that for `Cc1ccc(N2CC3CCC(C2)N3C)cc1C(=O)NC1(c2cccc(C(C)(C)C)c2)CC1` [Example C8] was 37.2%.

For the molecule `Cc1ccc(N2CC(N(C)C)C2)cc1C(=O)NC1(c2cccc3cc(F)ccc23)CC1` [Example C9], the IC50 was 0.0521 ± 0.00418 µM and the inhibition at 1 µM is 98%. On to `Cc1ccc(N2CC(N(C)C)C2)cc1C(=O)NC1(c2cccc3cc(F)c(F)cc23)CC1` [Example C10], for which half-maximal inhibition (IC50) was put at 0.013 ± 0.00276 µM and the inhibition at 1 µM amounted to 98.2%.

For the molecule `Cc1ccc(N2CC(N(C)C)C2)cc1C(=O)NC1(c2ccc(Cl)c3ccccc23)CC1` [Example C11], 0.0831 ± 0.0127 µM corresponded to half-maximal inhibition (IC50) and the inhibition at 1 µM was 96.8%. As to `COc1ccc(C2(NC(=O)c3cc(N4CC(N(C)C)C4)ccc3C)CC2)c2ccccc12` [Example C12], the midpoint of inhibition, the IC50, lay at 0.0186 ± 0.0023 µM and the inhibition at 1 µM turned out to be 97.8%.

Take `Cc1ccc(N2CC(N(C)C)C2)cc1C(=O)NC1(c2ccc(Br)c3ccccc23)CC1` [Example C13]: the IC50 came out at 0.0798 ± 0.00604 µM and the inhibition at 1 µM was 98.5%. Taken in the same sequence, the figures for `Cc1ccc(N2CC(N(C)C)C2)cc1C(=O)NC1(c2ccc(C)c3ccccc23)CC1` [Example C14] were 0.205 ± 0.0136 µM and 95.1%. As to `Cc1ccc(N2CC(N(C)C)C2)cc1C(=O)NC1(c2ccc(OC(F)F)c3ccccc23)CC1` [Example C15], the “inhibition of PLpro (1 μM)” value is 98.0%.

As to `Cc1ccc(N2CC(N(C)C)C2)cc1C(=O)NC1(c2ccc(F)c3ccccc23)CC1` [Example C16], the midpoint of inhibition, the IC50, lay at 0.0564 ± 0.00848 µM and the inhibition at 1 µM amounted to 89.4%. With `Cc1ccc(N2CC(N(C)C)C2)cc1C(=O)NC1(c2cccc3c(Cl)cccc23)CC1` [Example C17], it took 0.0187 ± 0.00529 µM to reach half-maximal inhibition (IC50) and the inhibition at 1 µM was found to be 98.1%. Turning to `Cc1ccc(N2CC(N(C)C)C2)cc1C(=O)NC1(c2cccc3c(F)cccc23)CC1` [Example C18], the IC50 is 0.0178 ± 0.00194 µM and the inhibition at 1 µM was 97.6%.

For `Cc1ccc(N2CC(N(C)C)C2)cc1C(=O)NC1(c2ccccc2)CC1` [Example C19], the inhibition at 1 µM is 4.9%. As for `Cc1ccc(N2CC(N(C)C)C2)cc1C(=O)NC1(c2csc3ccccc23)CC1` [Example C20], the IC50 was 0.0765 ± 0.00948 µM and the inhibition at 1 µM was 91.9%. On to `Cc1ccc(N2CC(N(C)C)C2)cc1C(=O)NC1(c2cccc3c2CCCC3)CC1` [Example C21], for which the IC50 was determined as 0.0911 ± 0.00822 µM and the inhibition at 1 µM was 90.4%.

Turning to `Cc1ccc(N2CC(N(C)C)C2)cc1C(=O)NC1(c2ccc(-c3ccccc3)cc2)CC1` [Example C22], the inhibition at 1 µM was found to be 0%.

Take `Cc1ccc(N2CC(N(C)C)C2)cc1C(=O)NC1(c2cccc(-c3ccccc3)c2)CC1` [Example C23]: the inhibition at 1 µM is 5.8%. On to `Cc1ccc(N2CC(N(C)C)C2)cc1C(=O)NC1(c2cccc3occc23)CC1` [Example C24], for which 0.423 ± 0.0614 µM corresponded to half-maximal inhibition (IC50) and the inhibition at 1 µM was 82.3%.

As for `Cc1ccc(N2CC(N(C)C)C2)cc1C(=O)NC1(C2=CCCc3ccccc32)CC1` [Example C25], the inhibition at 1 µM amounted to 55%. Take `Cc1ccc(N2CC(N(C)C)C2)cc1C(=O)NC1(c2cccc3ncccc23)CC1` [Example C27]: the “inhibition of PLpro (1 μM)” value was found to be 88.3% and 0.0976 µM corresponded to half-maximal inhibition (IC50). With `Cc1ccc(N2CC(N(C)C)C2)cc1C(=O)NC1(c2ccnc3ccccc23)CC1` [Example C28], the IC50 amounted to 0.129 µM and the inhibition at 1 µM turned out to be 89.7%. Turning to `Cc1ccc(N2CC(N(C)C)C2)cc1C(=O)NC1(c2ccnc3c(Cl)cccc23)CC1` [Example C29], the midpoint of inhibition, the IC50, lay at 0.0449 µM and the inhibition at 1 µM worked out at 92.9%.

Turning to `COc1cccc2c(C3(NC(=O)c4cc(N5CC(N(C)C)C5)ccc4C)CC3)ccnc12` [Example C30], half-maximal inhibition (IC50) was put at 0.0674 µM and the inhibition at 1 µM was found to be 91.5%. On to `Cc1ccc(N2CCCC(N(C)C)C2)cc1C(=O)NC1(c2ccc(F)c3ccccc23)CC1` (centres unmarked) [Example C31], for which the inhibition at 1 µM came out at 49.2%. On to `Cc1ccc(N2CCCC(N(C)C)C2)cc1C(=O)NC1(c2ccnc3ccccc23)CC1` (centres unmarked) [Example C32], for which the inhibition at 1 µM is 43.9%. `Cc1ccc(N2CCS(=O)(=O)CC2)cc1C(=O)NC1(c2ccnc3ccccc23)CC1` [Example C33]: the inhibition at 1 µM is 41%. In the case of `Cc1ccc(NC2CN3CCC2CC3)cc1C(=O)NC1(c2ccnc3ccccc23)CC1` (centres unmarked) [Example C34], the inhibition at 1 µM was 31.1%. `Cc1ccc(N2CCS(=O)(=O)CC2)cc1C(=O)NC1(c2ccc(F)c3ccccc23)CC1` [Example C35]: the inhibition at 1 µM is 2.6%.

Take `COC1(C)CN(c2ccc(C)c(C(=O)NC3(c4cccc5ncccc45)CC3)c2)C1` [Example C36]: the inhibition at 1 µM stood at 3.5%. Take `Cc1ccc(N2CC(C(=O)O)C2)cc1C(=O)NC1(c2cccc3ncccc23)CC1` [Example C37]: the inhibition at 1 µM is 12.6%. As to `COC1(C)CN(c2ccc(C)c(C(=O)NC3(c4ccc(F)c5ncccc45)CC3)c2)C1` [Example C38], the inhibition at 1 µM came out at 11.7%. The same measure, in the same setting: the value for `Cc1ccc(NC2CN3CCC2CC3)cc1C(=O)NC1(c2ccc(F)c3ncccc23)CC1` (centres unmarked) [Example C39] was 40.8%; that for `Cc1ccc(N2CCCC(N(C)C)C2)cc1C(=O)NC1(c2ccc(F)c3ncccc23)CC1` (centres unmarked) [Example C40] was 55.2%. Take `Cc1ccc(N2CCS(=O)(=O)CC2)cc1C(=O)NC1(c2ccc(F)c3ncccc23)CC1` [Example C41]: the inhibition at 1 µM is 32.8%. As to `Cc1ccc(N2CCN(C(C)C)CC2)cc1C(=O)NC1(c2ccnc3ccccc23)CC1` [Example C42], the inhibition at 1 µM was 85.2%.

`Cc1ccc(N2CCN(C3CC3)CC2)cc1C(=O)NC1(c2ccnc3ccccc23)CC1` [Example C43]: the inhibition at 1 µM turned out to be 71.9%.

With `Cc1ccc(N2CCN(C(C)C)CC2)cc1C(=O)NC1(c2ccc(F)c3ncccc23)CC1` [Example C44], the inhibition at 1 µM was found to be 84.9%. Regarding `Cc1ccc(N2CCN(C3CC3)CC2)cc1C(=O)NC1(c2ccc(F)c3ncccc23)CC1` [Example C45], the inhibition at 1 µM worked out at 81.4%.

In the case of `Cc1ccc(N2CCN(C3CC3)CC2)cc1C(=O)NC1(c2cccc3ncccc23)CC1` [Example C46], the inhibition at 1 µM came to 77.6%.

(Values after US20250289826A1, “PLPRO PROTEIN INHIBITOR, AND PREPARATION METHOD AND APPLICATION THEREOF” (priority 2022, published 2025).)
